The subject of data set [1] is OsBLE1 and OsBLE2 genes. Briefly: Northern blotting analysis of OsBLE1 and OsBLE2 expression after plant hormone treatment. Format: in vivo, Rice (Nipponbare). As to conditions: for expression of OsBLE1 and OsBLE2 following hormone treatment: leaf sheath and base of leaf blades, FIG. 2B-2C. The method, then: Rice (Nipponbare) was grown at 25° C. and 75% humidity with a 12-hrs day and 12-hrs night under white fluorescent light (about 600 μmol·m^−2sec^−1). Commercially available, high quality brassinolide (BL), gibberellin (GA), and indole-3-acetic acid (IAA) were used for the present invention. The method of Chomczynski and Sacchi (Chomczynski P., Sacchi N., Ana. Biochem., 162: 156–159, 1987) was used to extract RNA for RNA blotting analysis. An mRNA purification kit oligotex-dT-30 (Takara), was used to prepare mRNA for micro-array analysis. After tissue samples were quickly frozen in liquid nitrogen, about 0.5 g of the frozen tissue was ground into powder in a mortar and pestle. Total RNA was prepared by the method of Chomczynski and Sacchi (Chomczynski P., Sacchi N., Anal. Biochem., 162: 156–159, 1987). Then, mRNA for microarray analysis was purified from the total RNA using oligotexdT kit (Takara). For Northern blot analysis, 20 μg of the total RNA were electrophoresed in a 1.2% agarose gel containing 6% formaldehyde and then transferred to a Hybond™-N^+ nylon membrane. In order to ensure equivalent amount of RNAs were electrophoresed for Northern blotting, the present inventors stained gels with ethidium bromide to compare rRNA quantity. Hybridization was carried out at 42° C. overnight using ULTRAhyb™ (Ambion), and the membrane was washed with 2×SSC and 0.1% SDS at 42° C. for 5 min, and then with 0.1×SSC and 0.1% SDS at 68° C. for 15 min. Nylon membrane was exposed to X-ray film (Kodak). The expression patterns of the 12 genes were analyzed by Northern blotting. The present inventors then found two genes whose expression occurs one to six hours after brassinolide treatment and was increased in the leaf sheath and the base of leaf blades by auxin and brassinolide treatment (FIGS. 2A–2C). The present inventors named these two genes OsBLE1 and OsBLE2.

Data set [2] deals with 1265 rice genes (EST clones). In words: cDNA microarray analysis of rice seedling leaf blade base after brassinolide treatment. The settings on record: base of leaf blades of rice seedling, 1 μM brassinolide, 48 hours; depending on the concentration. In kind it is in vivo, Rice (Nipponbare). Here is the method: Rice (Nipponbare) was grown at 25° C. and 75% humidity with a 12-hrs day and 12-hrs night under white fluorescent light (about 600 μmol·m^−2sec^−1). Commercially available, high quality brassinolide (BL), gibberellin (GA), and indole-3-acetic acid (IAA) were used for the present invention. The method of Chomczynski and Sacchi (Chomczynski P., Sacchi N., Ana. Biochem., 162: 156–159, 1987) was used to extract RNA for RNA blotting analysis. An mRNA purification kit oligotex-dT-30 (Takara), was used to prepare mRNA for micro-array analysis. A cDNA microarray containing 1265 EST clones was used. RNA was isolated from the base of leaf blades treated with 1 μM brassinolide for 48 hours. Reverse transcription reaction was performed for two hours at 42° C. using 1 μg of mRNA in the presence of 50 μM Cy5 dCTP (Amersham Pharmacia), and then stopped. After heated at 94° C. for 3 min, the resulting mixture was treated with NaOH at 37° C. for 15 min to digest the RNA, and then cDNA was recovered. Fluorescently labeled cDNA probe was purified using a QIA quick PCR purification kit (Qiagen). […] Data were analyzed according to Array Vision (Imaging Research). Total RNA was extracted from the base of leaf blades of rice (Nipponbare) seedling treated with 1 μM brassinolide, and the RNA was analyzed using cDNA microarrays containing 1265 rice genes. […]

In data set [3] the test system is Nipponbare rice cultivar. In words: Growth of rice transformed with antisense cDNA under CaMV 35S promoter. In kind it is in vivo. As to conditions: antisense direction in pIG121-Hm, Agrobacterium EHA101, FIGS. 5B-5C. The text has this:
Two different cDNAs were inserted into an expression vector in the antisense direction. The resulting vector was then introduced into Agrobacterium (EHA101). The resulting Agrobacterium was used to transform Nipponbare rice cultivar by the ultrahigh-speed transformation method for monocotyledons (Japanese Patent No. 3141084).
Both of cDNAs of OsBLE1 and OsBLE2 were modified to have SalI restriction site at their 5′ end and to have XbaI restriction sites at their 3′ ends. The modified cDNAs were then digested with XbaI and SalI and inserted into a binary vector pIG121-Hm (Ohta S., Mita S., Hattori T., Nakamura K., Plant Cell Physiol., 31: 805–813, 1990) at XbaI (5′ end) and SalI (3′ end) sites (in the antisense direction) under the control of cauliflower mosaic virus 35S promoter. The recombinant binary vectors were introduced into Agrobacterium EHA101, and the resulting Agrobacterium was introduced into Nipponbare rice cultivar by ultrahigh-speed transformation method for monocotyledons. […] Therefore, the present inventors have succeeded in dwarfing a transformed plant in which expression of a gene that is induced by addition of a plant hormone, brassinolide, is regulated.

“Also recorded” adds a separate entry of the source.

Regarding `C=C1C[C@]23C[C@@]1(O)CC[C@H]2[C@@]12C=C[C@H](O)[C@@](C)(C(=O)O1)[C@H]2[C@@H]3C(=O)O` [GA3, gibberellin], in data set [1], the “expression of OsBLE1 and OsBLE2 following hormone treatment” value was “increased”.

As for `O=C(O)Cc1c[nH]c2ccccc12` [IAA, indole-3-acetic acid], in data set [1], the “expression of OsBLE1 and OsBLE2 following hormone treatment” value is listed as “increased”.

Turning to `CC(C)[C@H](C)[C@@H](O)[C@H](O)[C@@H](C)[C@H]1CC[C@H]2[C@@H]3COC(=O)[C@H]4C[C@H](O)[C@H](O)C[C@]4(C)[C@H]3CC[C@]12C` [brassinolide], the “expression level of the 12 different genes” value in data set [2] is “markedly increased”. Besides, the “time after treatment at which expression of OsBLE1 and OsBLE2 occurs / is induced” value in data set [1] (FIG. 2A) is “two to six; also recorded: one to six”. In data set [1], the “expression of OsBLE1 and OsBLE2 following hormone treatment” value is listed as “increased”.

For the molecule “OsBLE2: OsBLE2 cDNA (SEQ ID NO: 3) inserted in antisense direction in binary vector pIG121-Hm under CaMV 35S promoter”, the “growth of stem and leaf of transformed rice compared to controls containing the vector alone” value in data set [3] was “suppressed growth of stem and leaf”.

B1: OsBLE1: OsBLE1 cDNA (SEQ ID NO: 1) inserted in antisense direction in binary vector pIG121-Hm under CaMV 35S promoter (nucleic acid, listed as Oryza sativa)
DNA: AATTCGGCACGAGCGGCGGCGAGAGGAGCGGCGGCGATGGGCGGCGGCGGGCACGGCGGCGGCACGACGTACAAGGGGTACACCATCCCCCACAACAAGCGCTGGCACACCGTCGCCGGCAAGGGCCTCTGCGCCGTCATGTGGTTTTGGGTTTTCTACAGGGCTAAGCAGGACGGTGCTGTTCTCTTGGGCATGCGTCATCCTTGGGATGGTCATGATGATCACTCACATGGTCATGGGCATGAGCATGAGGGATCATCATCAACATCGTCGTCTCACTAAATCAACTGCTTCTTGGCGGCTGAGGGAGACTCGCTGCTTTGGTTGTCGCGATGAAATCCTCGAAGATAATAAAGTTTCACACTATTAATTTTATTAAGATGGGTTCATGTTGTTGGCAACTGTTTAAGGCAAACTGGTTATGTATTTTGCTTTTGAGATAGCCTCCCTCGATGGAAAACCCATGTATGTTGTTGCTTATTAGGCTGTGGACATCCTTTTGGATGTAGAGGCTGGGTTTTTAATCCATTATCTAAAAAAATGTTGTTGCTTCTTCCGATCAAAAAAAAAAAAAAAAAAAAAAAAAAAAAAAAAAAAA
modifications: antisense orientation in binary vector under 35S promoter; cDNA
Take B1: in data set [3], the “growth of stem and leaf of transformed rice compared to controls containing the vector alone” value was “suppressed growth of stem and leaf”.
